Assays:
HDAC1 [1] = target: T1, HDAC1 (Homo sapiens, UniProt Q13547); experiment: in vitro histone decrotonylation/deacetylation assay with recombinant HDAC1, western blot readout; assay type: biochemical
HDAC1 [2] = target: T1, HDAC1; experiment: in vitro histone decrotonylation/deacetylation assay with recombinant HDAC1; also used by HDAC1 to crotonylate histones at […] or higher; assay type: biochemical

T1 sequence (Q13547 whole entry): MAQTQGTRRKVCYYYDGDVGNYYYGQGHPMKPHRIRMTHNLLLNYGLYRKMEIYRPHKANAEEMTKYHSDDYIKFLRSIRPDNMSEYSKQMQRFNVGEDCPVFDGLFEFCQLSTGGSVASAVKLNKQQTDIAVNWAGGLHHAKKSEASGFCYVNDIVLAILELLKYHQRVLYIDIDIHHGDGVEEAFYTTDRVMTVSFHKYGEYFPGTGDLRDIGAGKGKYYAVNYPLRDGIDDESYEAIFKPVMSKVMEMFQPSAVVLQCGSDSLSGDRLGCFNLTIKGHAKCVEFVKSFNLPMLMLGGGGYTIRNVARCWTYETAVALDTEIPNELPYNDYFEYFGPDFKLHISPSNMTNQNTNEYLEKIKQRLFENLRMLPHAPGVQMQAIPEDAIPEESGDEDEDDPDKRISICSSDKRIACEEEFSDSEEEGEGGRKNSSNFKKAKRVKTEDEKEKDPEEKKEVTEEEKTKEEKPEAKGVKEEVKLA

In the case of CCCC(=O)O [butyrate], the “in vitro histone decrotonylation/deacetylation assay with recombinant HDAC1, wes” value (HDAC1 [1]) is reported as “In vitro, HDAC inhibitors TSA and butyrate reduced decrotonylation by HDAC1 significantly”.
For CC=CC(=O)O [crotonate], the “in vitro histone decrotonylation/deacetylation assay with recombinant HDAC1; als” value (HDAC1 [2]) was “We also found that crotonate inhibited decrotonylation and deacetylation in vitro (Fig. 7c)”.

Reference: publication PMC5760624, “Microbiota derived short chain fatty acids promote histone crotonylation in the colon through histone deacetylases” (Nature Communications, 2018)
